Measurements from ChEMBL document CHEMBL1201862, “PubChem BioAssay data set” (2004).
Calls of active or inactive are those of the source.

Experiments:
[1] = P. falciparum ATP4 D1247Y mutant growth inhibitors, dose response, NITD609-resistant line, SYBR Green, dry powder (AID 1159571); type: functional, cell-based;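 also: parasites synchronized at ring stage by sorbitol before testing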
[2] = P. falciparum 3D7-ScDHODH growth inhibitors, dose response, SYBR Green, dry powder samples (AID 1159570); type: functional, cell-based;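 also: parasite growth measured after 72 hours of compound exposure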
[3] = P. falciparum Dd2 growth inhibitors, dose response, SYBR Green, dry powder samples (AID 1159566); type: functional, cell-based;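 also: potency for growth inhibition with lower SYBR green DNA signal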
[4] = P. falciparum Dd2 growth inhibitors, dose response, SYBR Green, cherry-picked samples (AID 1159567); type: functional, cell-based
[5] = target: T1, Fructose-bisphosphate aldolase (Mycobacterium tuberculosis, UniProt P9WQA3); assay: Fluorescence-based biochemical high throughput dose response assay for inhibitors of the fructose-bisphosphate aldolase (FBA) of M. tuberculosis.; type: functional
T1 sequence (P9WQA3 whole entry): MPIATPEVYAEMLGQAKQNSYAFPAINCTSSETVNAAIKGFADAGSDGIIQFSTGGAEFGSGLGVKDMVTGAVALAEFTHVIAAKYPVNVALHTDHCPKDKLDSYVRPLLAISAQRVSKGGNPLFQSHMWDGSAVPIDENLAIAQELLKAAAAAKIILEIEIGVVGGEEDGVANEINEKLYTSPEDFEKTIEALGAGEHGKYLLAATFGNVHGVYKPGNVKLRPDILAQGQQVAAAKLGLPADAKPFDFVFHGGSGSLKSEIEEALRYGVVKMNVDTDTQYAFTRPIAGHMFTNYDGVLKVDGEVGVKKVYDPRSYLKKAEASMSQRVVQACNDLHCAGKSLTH

[6] = THP-1 cell cytotoxicity, dose response, cytotoxicity control for Vif-APOBEC3G degradation inhibitor project, THP-1 cells (AID 1117359); type: functional; details: Human immunodeficiency virus 1, THP-1
[7] = HepG2 cell cytotoxicity, dose response, cytotoxicity control, cherry-picked samples (AID 1159577); type: functional, cell-based
[8] = cells; type: functional, cell-based
[9] = cells; type: functional, cell-based; remark: listed apart in the source
[10] = NIH-3T3 fibroblast cytotoxicity, dose response, cytotoxicity control, cell-based, fluorescence, Alamar Blue, secondary assay (AID 2327); type: functional;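 also: NIH-3T3 mouse fibroblasts cultured with fluconazole at 8 µg/mL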
[11] = target: T2, Insulin-degrading enzyme (Homo sapiens, UniProt P14735); assay: activators of recombinant IDE enzyme, dose response, counter-screen for IDE activator project, biochemical, fluorescence polarization (AID 588681)
T2 sequence (P14735 whole entry): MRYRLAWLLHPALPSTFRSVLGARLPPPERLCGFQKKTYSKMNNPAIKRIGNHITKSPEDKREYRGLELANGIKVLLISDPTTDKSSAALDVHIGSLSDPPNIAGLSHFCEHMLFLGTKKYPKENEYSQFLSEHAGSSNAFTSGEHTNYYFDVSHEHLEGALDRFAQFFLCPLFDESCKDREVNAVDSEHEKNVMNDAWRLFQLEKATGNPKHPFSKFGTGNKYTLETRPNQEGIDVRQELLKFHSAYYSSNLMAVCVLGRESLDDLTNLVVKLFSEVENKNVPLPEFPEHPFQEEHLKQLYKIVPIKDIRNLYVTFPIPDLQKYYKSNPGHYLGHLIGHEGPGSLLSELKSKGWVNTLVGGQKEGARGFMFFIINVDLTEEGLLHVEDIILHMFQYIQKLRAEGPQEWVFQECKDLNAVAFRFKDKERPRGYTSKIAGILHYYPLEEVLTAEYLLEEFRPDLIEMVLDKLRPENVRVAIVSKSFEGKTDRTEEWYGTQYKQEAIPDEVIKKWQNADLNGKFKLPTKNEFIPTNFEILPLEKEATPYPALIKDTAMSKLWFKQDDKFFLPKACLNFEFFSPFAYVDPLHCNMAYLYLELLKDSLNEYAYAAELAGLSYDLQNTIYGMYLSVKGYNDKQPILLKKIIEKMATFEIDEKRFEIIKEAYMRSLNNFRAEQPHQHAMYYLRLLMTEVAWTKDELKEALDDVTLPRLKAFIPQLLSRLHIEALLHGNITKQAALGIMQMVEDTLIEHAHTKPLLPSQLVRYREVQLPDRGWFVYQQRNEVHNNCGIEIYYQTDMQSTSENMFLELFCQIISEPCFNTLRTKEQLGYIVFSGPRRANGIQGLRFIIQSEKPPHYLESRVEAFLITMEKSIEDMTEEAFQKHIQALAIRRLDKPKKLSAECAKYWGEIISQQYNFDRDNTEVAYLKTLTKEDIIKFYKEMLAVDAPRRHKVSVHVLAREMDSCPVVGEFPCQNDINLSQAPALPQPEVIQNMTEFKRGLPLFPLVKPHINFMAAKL

[12] = Vero E6 cell cytotoxicity, dose response, cytotoxicity control for non-replicating M. tuberculosis project, secondary assay (AID 492998); type: functional, VeroE6; details: Vero C1008
[13] = HepG2 cell cytotoxicity, dose response, cytotoxicity control, plate reader, cherry-pick, antagonist series (AID 743416); type: functional, cell-based
[14] = target: Heat shock protein HSP 90-alpha (Homo sapiens, UniProt P07900); type: functional, organism-based
[15] = HEK293 cell cytotoxicity, dose response, cytotoxicity control, plate reader, cherry-picked samples (AID 743446); type: functional, cell-based
[16] = cytotoxicity toward DRD oncogenic fibroblasts, dose response, cell-based, non-viral oncogenic, luminescence (AID 1934); type: functional; details: Homo sapiens
[17] = MC4R antagonists, dose response, counter-screen for LGR2 antagonist project, cell-based, plate reader, cherry pick (AID 743444); type: functional;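 also: transfected HEK 293 cells stimulated with alpha-MSH peptide; potency of inhibitors of the alpha-MSH evoked signal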
[18] = non-specific cell cytotoxicity, dose response, cytotoxicity control for PAX8 inhibitor project, plate reader, dry powder samples (AID 743021); type: functional, cell-based
[19] = HepG2 cell cytotoxicity, dose response, cytotoxicity control for non-replicating M. tuberculosis project (AID 489018); type: functional; details: Mycobacterium tuberculosis
[20] = target: Luciferin 4-monooxygenase (Photinus pyralis, UniProt P08659); assay: firefly luciferase enzyme inhibitors, dose response, biochemical, luminescence (AID 1891)
[21] = LGR2 antagonists, dose response, cell-based, HEK293, CRE-luciferase reporter, cherry pick, set 2 (AID 743343); type: functional;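 also: transfected cells were stimulated with diluted bursicon conditioned medium after compound addition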
[22] = target: Paired box protein Pax-8 (Homo sapiens, UniProt Q06710); assay: inhibitors of PAX8-driven TPO luciferase reporter, dose response, RMG-I cells, cherry-pick (AID 687027); type: functional, cell-based;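 also: luciferase reporter driven by Pax8 target thyroperoxidase promoter measured by SteadyGlo luminescence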
[23] = system: HEK293; assay: optical interference in Abeta FP readout, dose response, artefact control for IDE activator project, biochemical, fluorescence polarization (AID 588442); type: functional, cell-based; details: Homo sapiens
[24] = A549 cell cytotoxicity, dose response, cytotoxicity control, plate reader, cherry-pick, antagonist series (AID 743412); type: functional, cell-based
[25] = target: T2, Insulin-degrading enzyme; assay: activators of endogenous IDE in HEK cells, dose response, cell-based, fluorescence polarization (AID 588439); type: functional
[26] = system: HEK293; assay: HEK cell cytotoxicity by LDH release, dose response, cytotoxicity control for IDE activator project, fluorescence, HEK cells (AID 588440); type: functional, cell-based; details: Homo sapiens;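 also: cytotoxicity by LDH release measuring loss of membrane integrity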
[27] = C. albicans growth with fluconazole, confirmation, fluorescence, retest (AID 2467); type: functional, cell-based
[28] = Luminescence Cell-Based Dose Confirmation HTS to Identify Inhibitors of Platelet Dense Granule Release. [Related pubchem assays: 1663 (Primary HTS), 1678 (Summary of Project)]; type: functional
[29] = system: BJ; assay: cells; type: functional, cell-based; details: Homo sapiens
[30] = system: BJ; assay: cytotoxicity toward BJ-TERT-LT-ST fibroblasts, dose response, cell-based, RAS-independent, luminescence (AID 1935); type: functional; details: Homo sapiens;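 also: BJ fibroblasts immortalized with TERT plus LT and ST oncogenes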
[31] = system: BJ; assay: cytotoxicity toward BJ-TERT fibroblasts, dose response, cell-based, RAS-independent, luminescence (AID 1933); type: functional; details: Homo sapiens
[32] = THP-1 cell cytotoxicity, dose response, cytotoxicity control for non-replicating M. tuberculosis project (AID 489025); type: functional
[33] = target: T3, DNA repair and recombination protein RAD54-like (Homo sapiens, UniProt Q92698); assay: inhibitors of human RAD54 branch migration, confirmation, biochemical, fluorescence, cherry-picked samples, dose series (AID 651657); type: functional
T3 sequence (Q92698 whole entry): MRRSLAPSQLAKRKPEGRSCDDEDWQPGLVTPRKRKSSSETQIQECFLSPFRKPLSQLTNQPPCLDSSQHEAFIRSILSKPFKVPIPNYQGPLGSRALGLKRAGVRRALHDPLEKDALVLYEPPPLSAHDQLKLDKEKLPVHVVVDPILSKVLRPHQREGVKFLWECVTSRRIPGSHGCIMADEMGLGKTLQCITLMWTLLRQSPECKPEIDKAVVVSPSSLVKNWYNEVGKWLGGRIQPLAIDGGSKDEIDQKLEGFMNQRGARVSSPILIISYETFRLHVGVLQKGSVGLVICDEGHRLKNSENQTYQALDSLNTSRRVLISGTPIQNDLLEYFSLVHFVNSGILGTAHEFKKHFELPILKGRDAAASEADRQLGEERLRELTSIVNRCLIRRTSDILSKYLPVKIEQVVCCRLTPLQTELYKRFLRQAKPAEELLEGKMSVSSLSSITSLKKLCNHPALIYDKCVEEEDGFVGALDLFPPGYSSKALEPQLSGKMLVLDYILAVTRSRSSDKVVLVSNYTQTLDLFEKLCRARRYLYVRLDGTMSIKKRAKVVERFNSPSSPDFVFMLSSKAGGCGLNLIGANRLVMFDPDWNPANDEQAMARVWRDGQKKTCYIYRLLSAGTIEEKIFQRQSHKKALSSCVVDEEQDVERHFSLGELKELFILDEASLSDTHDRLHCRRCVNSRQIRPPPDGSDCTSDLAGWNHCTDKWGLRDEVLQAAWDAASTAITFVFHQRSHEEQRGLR

[34] = target: T4, DNA repair protein RAD52 homolog (Homo sapiens, UniProt P43351); type: functional, biochemical
T4 sequence (P43351 whole entry): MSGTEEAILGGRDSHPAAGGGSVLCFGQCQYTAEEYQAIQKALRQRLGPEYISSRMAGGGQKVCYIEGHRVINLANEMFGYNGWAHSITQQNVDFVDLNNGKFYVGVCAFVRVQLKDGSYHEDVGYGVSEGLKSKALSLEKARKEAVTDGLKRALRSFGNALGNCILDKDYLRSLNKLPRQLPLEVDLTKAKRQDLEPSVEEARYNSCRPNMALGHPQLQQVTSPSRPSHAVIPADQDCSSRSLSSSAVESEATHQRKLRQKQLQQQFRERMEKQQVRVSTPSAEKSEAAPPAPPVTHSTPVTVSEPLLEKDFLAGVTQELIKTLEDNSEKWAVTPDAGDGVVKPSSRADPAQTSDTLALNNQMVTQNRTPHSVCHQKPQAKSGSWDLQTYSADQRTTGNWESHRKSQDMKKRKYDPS

Chain of Luciferin 4-monooxygenase (P08659 whole entry): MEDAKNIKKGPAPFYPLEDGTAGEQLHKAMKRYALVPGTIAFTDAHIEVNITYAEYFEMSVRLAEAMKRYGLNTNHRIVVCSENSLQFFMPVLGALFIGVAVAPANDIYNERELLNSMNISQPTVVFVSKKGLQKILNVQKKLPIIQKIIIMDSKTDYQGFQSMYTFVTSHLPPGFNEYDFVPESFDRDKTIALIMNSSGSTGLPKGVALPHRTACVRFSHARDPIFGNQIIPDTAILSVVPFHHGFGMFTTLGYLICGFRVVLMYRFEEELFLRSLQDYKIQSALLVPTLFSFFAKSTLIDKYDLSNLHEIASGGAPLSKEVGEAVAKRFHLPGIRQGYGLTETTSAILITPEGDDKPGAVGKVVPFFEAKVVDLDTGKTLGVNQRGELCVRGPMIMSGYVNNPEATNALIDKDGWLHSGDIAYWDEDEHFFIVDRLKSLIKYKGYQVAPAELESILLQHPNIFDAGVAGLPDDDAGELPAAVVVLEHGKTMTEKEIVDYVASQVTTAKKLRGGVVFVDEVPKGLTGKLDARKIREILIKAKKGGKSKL
Chain of Paired box protein Pax-8 (Q06710 whole entry): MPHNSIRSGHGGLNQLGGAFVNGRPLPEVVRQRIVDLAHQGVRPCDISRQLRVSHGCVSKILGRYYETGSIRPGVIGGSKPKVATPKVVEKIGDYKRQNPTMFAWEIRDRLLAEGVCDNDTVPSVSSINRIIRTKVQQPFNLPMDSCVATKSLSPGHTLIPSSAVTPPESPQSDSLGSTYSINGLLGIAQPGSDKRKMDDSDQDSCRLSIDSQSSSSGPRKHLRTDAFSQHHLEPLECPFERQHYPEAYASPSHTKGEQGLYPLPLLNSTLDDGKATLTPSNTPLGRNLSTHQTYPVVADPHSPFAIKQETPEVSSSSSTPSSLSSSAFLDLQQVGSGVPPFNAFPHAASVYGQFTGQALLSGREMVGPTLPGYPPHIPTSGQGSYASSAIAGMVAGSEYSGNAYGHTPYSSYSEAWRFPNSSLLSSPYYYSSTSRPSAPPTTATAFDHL

COc1ccc2c3c(n(C)c2c1)[C@@H](CO)N(C(=O)C1CCCC1)CC31CCN(C(=O)Nc2cccc(F)c2)CC1
AC50 [1]: 0.239 µM (active)
AC50 [2]: 0.0947 µM (active)
AC50 [3]: 0.418 µM (active)
AC50 [4]: 0.672 µM (active)

C[C@H](CO)N1C[C@H](C)[C@@H](CN(C)C(=O)Nc2cccc3ccccc23)Oc2ccc(NC(=O)Nc3ccc(C(F)(F)F)cc3)cc2C1=O
AC50 [1]: 1.21 µM (active)
AC50 [2]: 1.37 µM (active)
AC50 [3]: 1.44 µM (active)
AC50 [4]: 1.81 µM (active)

Cc1cc2c(SCc3ccccc3Cl)nc(N)nc2nc1C
IC50 [5]: 0.833 µM (active)

COc1ccc(-c2cc(-c3ccccc3)c(C#N)c(SCC(=O)O)n2)cc1
IC50 [5]: 1.35 µM (active)

CNc1ccc(Br)cc(C(=O)/C=C/c2cccc(OC)c2OC)c1=O
CC50 [6]: > 40 µM (active)

C[C@@H]1CN([C@H](C)CO)C(=O)c2ccccc2-c2ccccc2CO[C@@H]1CN(C)Cc1ccccc1C(F)(F)F
AC50 [4]: 2.79 µM (active)
AC50 [7]: 15.7 µM (active)

O=C(CNC(=O)c1cccc(F)c1)N/N=C/C=C/c1ccccc1
IC50 [8]: > 29.9 µM (inactive)
EC50 [9]: > 29.9 µM (inactive)

COc1ccc(NC(=O)c2cc([N+](=O)[O-])ccc2O)cc1
EC50 [10]: 11.6 µM (active)
EC50 [11]: > 54.7 µM (inactive)
CC50 [12]: > 20 µM (active)
AC50 [13]: 9.22 µM (active)
AC50 [14]: 3.37 µM (active)
AC50 [15]: 6.28 µM (active)
EC50 [16]: 6.2 µM (active)
AC50 [17]: 0.739 µM (active)
AC50 [18]: 12.4 µM (active)
CC50 [19]: > 20 µM (active)
EC50 [20]: 0.129 µM (active)
AC50 [21]: 0.784 µM (active)
AC50 [22]: 5.39 µM (active)
EC50 [23]: > 54.7 µM (inactive)
AC50 [24]: 11.9 µM (active)
EC50 [25]: > 54.7 µM (inactive)
IC50 [26]: > 89.1 µM (inactive)
EC50 [27]: 1.27 µM (active)
EC50 [28]: 2.15 µM (active)
EC50 [29]: 5.17 µM (active)
EC50 [30]: > 150 µM (inconclusive)
EC50 [31]: 9.48 µM (active)
CC50 [32]: 26.5 µM (active)

COc1ccc(CCNC(=O)c2cc3c(=O)n4ccccc4nc3n(CCCN3CCOCC3)c2=N)cc1OC
AC50 [33]: 31 µM (active)
AC50 [34]: 11.5 µM (active)
